Experimental data: PubChem BioAssay (NCI)
Values joined by “and” are separate entries in the source; they are usually repeats but may differ in a detail not shown here. Equal values may be shown once.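 Test compounds were applied to cells in 96-well plates for 48 hours at 5 doses. Abbreviation: GI50, concentration required for 50% inhibition of growth. The concentration for full growth arrest is given as TGI.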

Tests used:
Experiment in all cases: NCI anticancer screen, dose series, 48 h
[1] = tested on: SN12C renal
[2] = tested on: SW-620 colon
[3] = tested on: UACC-62 melanoma
[4] = tested on: UO-31 renal
[5] = tested on: K-562 leukemia
[6] = tested on: OVCAR-8 ovarian
[7] = tested on: SNB-75 CNS
[8] = tested on: TK-10 renal
[9] = tested on: MCF7 breast
[10] = tested on: PC-3 prostate

Row | Compound | TGI [1] | TGI [2] | TGI [3] | TGI [4] | TGI [5] | TGI [6] | TGI [7] | TGI [8] | GI50 [9] | TGI [9] [µM] | GI50 [6] [µM] | GI50 [1] [µM] | GI50 [8] | GI50 [3] | GI50 [5] | GI50 [10] | TGI [10] | GI50 [7] | GI50 [2] [µM] | GI50 [4]
1 | Cc1cccc(CC(C)(C)C)c1NC(=O)C(=O)C(C(=O)c1ccc2ccccc2c1)C1OC(=O)c2ccccc21 (configuration not stated) | 36.9 µM | 38.7 µM | 21.7 µM | 31.1 µM |  |  |  |  |  |  |  |  |  |  |  |  |  |  |  | 
2 | Cc1[nH]c(=O)nc(N/N=C/c2ccc(O)cc2)c1C(=O)Nc1ccc(Cl)cc1 | > 100 µM | > 100 µM | > 100 µM | > 100 µM | > 100 µM | > 100 µM | > 100 µM | > 100 µM |  |  |  |  |  |  |  |  |  |  |  | 
3 | COc1cc(CC(=O)c2ccc3c(c2)OCO3)cc(OC)c1OC | > 100 µM | 46.3 µM | > 100 µM | > 100 µM | > 100 µM | > 100 µM | > 100 µM | > 100 µM |  |  |  |  |  |  |  |  |  |  |  | 
4 | Cc1cccc(N2C(=O)/C(=C/c3ccc(N(CCC#N)CCC#N)cc3C)N=C2c2cc([N+](=O)[O-])ccc2Cl)c1 | > 100 µM | > 100 µM | > 100 µM | > 100 µM | > 100 µM | > 100 µM | > 100 µM | > 100 µM |  |  |  |  |  |  |  |  |  |  |  | 
5 | COc1ccc(-n2nc(C)c3c2N(C)C2(C)C[C@@H]4C3(C)[C@@H]3CC4(C2)N(C)c2c(c(C)nn2-c2ccc(OC)cc2)[C@H]3C)cc1 (some centres not stated) | > 100 µM |  | > 100 µM |  |  | 92.7 µM |  | 21.3 µM | 4.02 µM | > 100 | 4.19 | 8.06 | 4.77 µM | 12.6 µM |  |  |  |  |  | 
6 | Cc1cc(N)c2ccccc2[n+]1CCCCCCCCCC[n+]1c(C)cc(N)c2ccccc21 | > 14 µM and 7.39 µM and 16.7 µM | > 50 µM and 33.9 µM and > 100 µM |  | > 50 µM and 12.9 µM and 14 µM | 2.22 µM and 3.84 µM and 12.4 µM | 1.99 µM and 13.8 µM | 6.77 µM and 6.72 µM and 11 µM | 7.63 µM and 15.5 µM and 24.3 µM |  |  | 0.218 | 0.159 | 0.684 µM and 3.13 µM | 0.189 µM | 0.137 µM | 0.245 µM and 0.744 µM | 4.63 µM and 15.8 µM and 11.1 µM | 0.212 µM and 0.249 µM | 0.508 | 0.954 µM and 2.84 µM
7 | CCOC(=O)NNC(=O)NC12CC3CC(CC(C3)C1)C2 | > 100 µM | > 100 µM | > 100 µM | > 100 µM | > 100 µM | > 100 µM | > 100 µM | > 100 µM |  |  |  |  |  |  |  |  |  |  |  | 
8 | CCCCCCCCC(=O)NCCCNCCCNC(=O)CCCCCCCC | 16.3 µM | 7.3 µM | 12.3 µM | 27.6 µM | 4.55 µM | 32.9 µM |  | 30.2 µM |  |  |  |  |  |  |  |  |  |  |  | 
9 | CN1C(=O)C23CC4=CC=CC(O)C4N2C(=O)C1(CO)SS3 (configuration not stated) | 0.139 µM | 0.634 µM | 0.424 µM | 2.03 µM |  | 0.154 µM | 0.382 µM | 0.34 µM |  | 0.371 |  |  |  |  |  |  | 0.387 µM |  |  | 
10 | Cc1ns/c(=N\C(=S)N(C)C)n1C | > 100 µM | > 100 µM | > 100 µM | > 100 µM | > 100 µM | > 100 µM | > 100 µM | > 100 µM |  |  |  |  |  |  |  |  |  |  |  | 
11 | C=C(C)[C@@H]1CCC[C@]2(C(=O)O)CC[C@]3(C)[C@@H](CC[C@@H]4[C@@]5(C)C/C(=C/c6ccncc6)C(=O)C(C)(C)[C@@H]5CC[C@]43C)[C@@H]12 | > 100 µM | 9.6 µM | 5.68 µM | 4.65 µM | > 100 µM | > 100 µM |  | 29.4 µM | 2.77 µM | 28.5 | 3.07 | 3.71 | 3.6 µM | 2.05 µM | 3.3 µM | 2.39 µM | 20.3 µM |  | 3.14 | 1.74 µM
12 | O=C1c2cccc3cccc(c23)C(=O)N1CCCN1CCN(CCCN2C(=O)c3cccc4cccc(c34)C2=O)CC1 | > 100 µM | > 100 µM | > 100 µM | > 100 µM | > 100 µM | > 100 µM | > 100 µM | > 100 µM |  |  |  |  |  |  |  |  |  |  |  | 
13 | N#CC(=C=[N-])[n+]1ccc(Cl)cc1 | 28.3 µM | 23.4 µM | 29.9 µM | 59.9 µM | 11.3 µM | 37.9 µM | 32.2 µM | 45.8 µM |  |  |  |  |  |  |  |  |  |  |  | 
14 | COC(=O)C1CCC(=NC2c3ccccc3-c3ccccc32)N1 (configuration not stated) | > 100 µM | > 100 µM | > 100 µM | > 100 µM | > 100 µM | > 100 µM | > 100 µM | > 100 µM |  |  |  |  |  |  |  |  |  |  |  | 
15 | O=C1c2ccccc2C(=O)c2c1ccc1c3ccccc3n(Cc3ccccc3)c21 | > 100 µM | > 100 µM | > 100 µM | > 100 µM | > 100 µM | > 100 µM | > 100 µM |  |  |  |  |  |  |  |  |  |  |  |  | 
16 | C/C(=N/Nc1ccc([N+](=O)[O-])cc1[N+](=O)[O-])C(CC(C(=O)Nc1ccccc1C)/C(C)=N\Nc1ccc([N+](=O)[O-])cc1[N+](=O)[O-])C(=O)Nc1ccccc1C (configuration not stated) | 12.7 µM | 42.3 µM | 69.4 µM | 39.9 µM | > 100 µM | 14 µM | 29.4 µM | 60.1 µM |  |  |  |  |  |  |  |  |  |  |  | 
17 | O=C1/C(=C/c2ccccc2)CN(C(=O)Oc2ccc([N+](=O)[O-])cc2)C/C1=C\c1ccccc1 | 7.62 µM | 2.47 µM |  |  | 5.33 µM | 3.74 µM and 4.18 µM |  |  |  |  | 1.86 | 3.45 |  | 3.81 µM | 1.79 µM |  |  |  | 1.27 | 
18 | CCOC(=N)CC(=O)NC(C)c1ccccc1 (configuration not stated) | > 100 µM | > 100 µM | > 100 µM | > 100 µM | > 100 µM | > 100 µM | > 100 µM | > 100 µM |  |  |  |  |  |  |  |  |  |  |  | 
19 | O=C(OCc1nc2ccc(Br)cc2c(=O)n1-c1ccccc1)c1ccccc1O | > 100 µM | > 100 µM | > 100 µM | > 100 µM | > 100 µM | > 100 µM | > 100 µM | > 100 µM |  |  |  |  |  |  |  |  |  |  |  | 
20 | Nc1ncnc2c1ncn2Cc1ccc(C23CC4CC(CC(C4)C2)C3)c(O)c1 | > 100 µM | > 100 µM | > 100 µM | > 100 µM |  | > 100 µM | 40 µM | 50.2 µM | 17.4 µM | > 100 | 17.5 | 36.9 | 7.24 µM | 31.8 µM |  | 8.36 µM | 96.3 µM | 13.4 µM | 48.7 | 90 µM
21 | C/C(=N\NC(=S)N1CCC(C2CCN(C(=S)N/N=C(\C)c3ccccn3)CC2)CC1)c1ccccn1 | > 100 µM | > 100 µM | > 100 µM | > 100 µM | > 100 µM | > 100 µM | 67.4 µM | > 100 µM |  |  |  |  |  |  |  |  |  |  |  | 
22 | O=C1CC2Sc3ccccc3N=C2N1c1ccc(Cl)cc1Cl (configuration not stated) | > 100 µM | > 100 µM | > 100 µM | > 100 µM |  | > 100 µM | > 100 µM | > 100 µM |  |  |  |  |  |  |  |  |  |  |  | 
23 | O=C(NO)C(O)C(O)C(O)C(O)CO (configuration not stated) | > 100 µM | > 100 µM | > 100 µM | > 100 µM | > 100 µM | > 100 µM |  | > 100 µM | > 100 µM and 46.4 µM | > 100 | > 100 | > 100 | > 100 µM | 84.2 µM and 38.6 µM | > 87.6 µM and 47.1 µM | > 100 µM | > 100 µM |  | > 100 | > 100 µM
24 | CCCCCCCCCCCCCCCC(=O)N[C@H]1CCc2cc(OC)c(OC)c(OC)c2-c2ccc(SC)c(=O)cc21 | 9.08 µM and 10.3 µM | 15.6 µM and 10.8 µM | 13.4 µM and 11.8 µM | 18.4 µM | 11.1 µM and 14.5 µM | 8.92 µM and 12.6 µM |  | 35.8 µM and > 100 µM |  |  | 3.31 | 2.84 | 27.9 µM | 1.21 µM | 0.709 µM |  |  | 2.96 µM | 2.1 | 
25 | COC(=O)C(=O)C(C(=O)C(=O)Nc1ccccc1C(N)=O)c1nc2ccc(C(=O)c3ccccc3)cc2[nH]c1=O (configuration not stated) | > 100 µM | > 100 µM | 65.4 µM | > 100 µM | > 100 µM | > 100 µM |  | > 100 µM |  |  |  |  |  |  |  |  |  |  |  | 
26 | COc1ccccc1NC(=O)C(=O)C1C(=O)Nc2ccccc2S1=O (configuration not stated) | > 100 µM | > 100 µM | > 100 µM | > 100 µM | > 100 µM | > 100 µM | > 100 µM | > 100 µM |  |  |  |  |  |  |  |  |  |  |  | 
27 | COc1ncnc2c(-c3ccco3)cn(COCc3ccccc3)c12 | > 50 µM | > 50 µM | > 50 µM |  | > 50 µM | > 50 µM | > 50 µM | > 50 µM |  |  | > 50 | > 50 | 17.8 µM | 8.2 µM | > 50 µM | 3.5 µM | > 50 µM | 12.7 µM | > 50 | 
28 | CCN1CC2(C)CC[C@@H](OC)C34[C@@H]2[C@H](OC(C)=O)C2(OCO[C@@]25C[C@H](OC)C2C[C@]3(O)[C@@H]5[C@H]2O)[C@H]14 | > 100 µM | > 100 µM |  | > 100 µM |  | > 100 µM | > 100 µM | > 100 µM |  |  |  |  |  |  |  |  |  |  |  | 
29 | CCC1NCC(=O)c2c1[nH]c1ccccc21 (configuration not stated) | > 100 µM | > 100 µM | > 100 µM | > 100 µM | > 100 µM | > 100 µM | > 100 µM | > 100 µM |  |  |  |  |  |  |  |  |  |  |  | 
30 | CC(C)=C1CCC(CN2CCCC2)C1=O (configuration not stated) | 33.1 µM | 47.5 µM | > 100 µM | 36.1 µM | > 100 µM | > 100 µM | > 100 µM | > 100 µM |  |  |  |  |  |  |  |  |  |  |  | 
